# From US4368203A, “Antibiotics and derivatives thereof having β-lactamase inhibitory activity and production thereof” (priority 1977, dated 1983)
# Read-outs that look alike come from different tables or passages of the source.
# Key:
# [1] = tested on: Alcaligenes faecalis B-326; experiment: MIC, broth dilution method; format: cell-based; settings: Alcaligenes faecalis, B326, read-out: Minimum inhibitory concentration
# Experimental: (§1) Sodium salt of the antibiotic PS-7 was dissolved and diluted with the BRAIN HEART INFUSION BROTH "Eiken" at a concentration between 5 μg/ml and 100 μg/ml. The solution was further diluted with the same medium to obtain a series of geometric concentrations. To the serial dilutions were added the seed cultures prepared by shaking culture of various test microorganisms shown in Tab. 5 in the BRAIN HEART INFUSION GROTH at 28° C. for 18 hours, the final cell count being about 1×10^5 /ml. […] The lowest concentration at which no cell growth was observed was the minimum inhibitory concentration of the antibiotic PS-7 on the test microorganism. […] . The minimum inhibitory concentrations on test strains were determined in the same manner as mentioned above. […] For the comparison, the results on the known antibiotics Cephazolin and Cefoxitin are also given in the same table.
# [2] = tested on: Citrobacter freundii E-9; experiment: MIC, broth dilution method; format: cell-based; settings: Citrobacter freundii, read-out: Minimum inhibitory concentration
# Experimental: as §1
# [3] = tested on: Enterobacter cloacae E-16; experiment: MIC, broth dilution method; format: cell-based; settings: Enterobacter cloacae, read-out: Minimum inhibitory concentration
# Experimental: Sodium salt of the antibiotic PS-7 was dissolved and diluted with the BRAIN HEART INFUSION BROTH "Eiken" at a concentration between 5 μg/ml and 100 μg/ml. The solution was further diluted with the same medium to obtain a series of geometric concentrations. To the serial dilutions were added the seed cultures prepared by shaking culture of various test microorganisms shown in Tab. 5 in the BRAIN HEART INFUSION GROTH at 28° C. for 18 hours, the final cell count being about 1×10^5 /ml. […] The lowest concentration at which no cell growth was observed was the minimum inhibitory concentration of the antibiotic PS-7 on the test microorganism. […] The minimum inhibitory concentrations on test strains were determined in the same manner as mentioned above.
# [4] = tested on: Diplococcus pneumoniae Type III; experiment: MIC, broth dilution method; format: cell-based; settings: Streptococcus pneumoniae; Table 7; no unit in the head; horse serum in the medium at 10%; read-out: Minimum inhibitory concentration
# [5] = tested on: Klebsiella pneumoniae K-2; experiment: MIC, broth dilution method; settings: Klebsiella pneumoniae, K2, 20 h, read-out: Minimum inhibitory concentration
# [6] = tested on: Staphylococcus aureus Bx-1633; experiment: MIC, broth dilution method; settings: BX1633, 20 h, read-out: Minimum inhibitory concentration
# [7] = tested on: Streptococcus pyogenes NY-5; experiment: MIC, broth dilution method; settings: Streptococcus pyogenes, NY5, 20 h, read-out: Minimum inhibitory concentration
# [8] = tested on: Providencia sp. P-8; experiment: MIC, broth dilution method; settings: SP.P8, 20 h, read-out: Minimum inhibitory concentration
# [9] = tested on: Enterobacter aerogenes E-19; experiment: MIC, broth dilution method; settings: Klebsiella aerogenes, E19, 20 h, read-out: Minimum inhibitory concentration
# [10] = tested on: Proteus vulgaris P-5; experiment: MIC, broth dilution method; settings: Proteus vulgaris, P5, 20 h, read-out: Minimum inhibitory concentration
# [11] = tested on: Proteus sp. P-22; experiment: MIC, broth dilution method; settings: 20 h, read-out: Minimum inhibitory concentration
# [12] = tested on: Serratia marcescens S-18; experiment: MIC, broth dilution method; settings: S18, 20 h, read-out: Minimum inhibitory concentration
# [13] = tested on: Bacillus subtilis ATCC 6633; experiment: MIC, broth dilution method; settings: ATCC6633, 20 h, read-out: Minimum inhibitory concentration
# [14] = tested on: Citrobacter freundii E-9; experiment: Potentiating and synergistic effect, pulp disc inhibition zone on agar plate; format: cell-based; settings: Table 6, disc 20 μl, PS-6 240 μg/ml, reference antibiotics 10,000 μg/ml
# Experimental: (§2) 10 ml of 2.5 folds diluted nutrient agar (pH 7.0) containing 50 μg/ml of penicillin G or cephaloridine was seeded with the β-lactamase producing and β-lactam-resistant microorganisms and poured in a 9 cm Petri dish to provide the bio-assay agar plate. On this assay plate, 8 mm of pulp discs each containing 20 μl of antibiotic PS-6 solution at the concentration of 240 μg/ml were placed and incubated at 35° C. for 18 hours before reading the inhibition zones. A control assay plate was similarly prepared without penicillin G or cephaloridine. As reference antibiotics, 10,000 μg/ml of penicillin G or 20 μl of cephaloridine were disc-assayed under the same conditions.
# [15] = tested on: Serratia marcescens S-18; experiment: as above; format: cell-based; settings: Table 6, disc 20 μl, PS-6 240 μg/ml, reference antibiotics 10,000 μg/ml
# Experimental: as §2
# [16] = agar containing 50 μg/ml of cephaloridine
# [17] = agar containing 50 μg/ml of penicillin G
smiles,measurement,setting,value
CCC1C(=O)N2C(C(=O)O)=C(SC=CNC(C)=O)CC12 (stereo not shown) [Antibiotic PS-7],MIC,"[1]; Table 7, no unit in the head",0.78 µg/mL
same,MIC,"[2]; E9, Table 7, no unit in the head, lactamase-producing strain",3.13 µg/mL
same,MIC,"[3]; E16, Table 7, no unit in the head, lactamase-producing strain",6.25 µg/mL
same,MIC,[4],< 0.19 µg/mL
CC(=O)NCCSC1=C(C(=O)O)N2C(=O)C(C(C)C)C2C1 (stereo not shown) [Antibiotic PS-6],MIC,[5],12.5 µg/mL
same,MIC,"[1]; Table 5, 35° C. 20 hours",1.56 µg/mL
same,MIC,"[2]; E9, 20 h, Table 5, betalactamase producer",12.5 µg/mL
same,MIC,"[3]; E16, 20 h, Table 5, betalactamase producer",25 µg/mL
same,MIC,[6],0.33 µg/mL
same,MIC,[7],0.33 µg/mL
same,MIC,[8],12.5 µg/mL
same,MIC,[9],25 µg/mL
same,MIC,[10],25 µg/mL
same,MIC,[11],12.5 µg/mL
same,MIC,[12],50 µg/mL
same,MIC,[13],1.34 µg/mL
same,zone of inhibition at 240 µg/mL,"[14]; Citrobacter freundii, E9, 18 h, plate without penicillin G or cephaloridine, read-out: Inhibition zone, Control",22 mm
same,"Inhibition zone, with cephaloridine",[14]; [16],25.0 mm
same,"Inhibition zone, with penicillin G",[14]; [17],23.0 mm
same,zone of inhibition at 240 µg/mL,"[15]; Serratia marcescens, S18, 18 h, plate without penicillin G or cephaloridine, read-out: Inhibition zone, Control",20 mm
same,"Inhibition zone, with cephaloridine",[15]; [16],26.0 mm
same,"Inhibition zone, with penicillin G",[15]; [17],22.0 mm
